From KR20080072496A, “노스탁속 균주 유래 아밀로플루란네이즈 및 이를 이용한고순도 말토올리고당의 제조방법” (재단법인서울대학교산학협력재단, priority 2007, dated 2008)

Biological target: T1, Nostoc sp. PCC73102 amylopullulanase, SEQ ID NO: 4, recombinant from pETNPul6xH with C-terminal Leu-Glu-6His (노스탁속 균주 유래 아밀로플루란네이즈) (Nostoc punctiforme (strain ATCC 29133 / PCC 73102), UniProt B2IUW9)
T1 sequence (B2IUW9 1-488): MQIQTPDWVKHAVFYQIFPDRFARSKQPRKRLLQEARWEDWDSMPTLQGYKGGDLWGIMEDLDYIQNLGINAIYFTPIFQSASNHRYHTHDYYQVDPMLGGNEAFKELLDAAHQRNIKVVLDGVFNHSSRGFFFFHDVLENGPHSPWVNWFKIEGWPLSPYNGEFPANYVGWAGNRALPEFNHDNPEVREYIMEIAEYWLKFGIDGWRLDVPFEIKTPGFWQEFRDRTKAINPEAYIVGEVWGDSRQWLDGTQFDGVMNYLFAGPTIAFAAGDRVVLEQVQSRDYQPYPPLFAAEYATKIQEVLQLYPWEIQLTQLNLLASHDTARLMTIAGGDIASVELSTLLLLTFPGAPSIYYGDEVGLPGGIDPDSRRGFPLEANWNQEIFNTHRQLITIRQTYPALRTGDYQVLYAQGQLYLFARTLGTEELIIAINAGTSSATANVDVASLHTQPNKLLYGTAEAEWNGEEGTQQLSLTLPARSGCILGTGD
Assay: Kinetics of amylopullulanase on maltoheptaose, maltooctaose and maltononaose (Example 6-2, glucose quantified by GOD-POD method)
Format: biochemical
Conditions: 25 °C, pH 7, 3 min

Row | SMILES | Kcat, ratio to Kcat of maltoheptaose (relative to maltoheptaose (G7)) | Km, ratio to Km of maltononaose (relative to maltononaose (G9)) | Km, ratio to Km of maltooctaose (relative to maltooctaose (G8))
1 | OC[C@H]1O[C@H](O[C@H]2[C@H](O)[C@@H](O)[C@@H](O[C@H]3[C@H](O)[C@@H](O)[C@@H](O[C@H]4[C@H](O)[C@@H](O)[C@@H](O[C@H]5[C@H](O)[C@@H](O)[C@@H](O[C@H]6[C@H](O)[C@@H](O)[C@@H](O[C@H]7[C@H](O)[C@@H](O)[C@@H](O[C@H]8[C@H](O)[C@@H](O)[C@@H](O[C@H]9[C@H](O)[C@@H](O)C(O)O[C@@H]9CO)O[C@@H]8CO)O[C@@H]7CO)O[C@@H]6CO)O[C@@H]5CO)O[C@@H]4CO)O[C@@H]3CO)O[C@@H]2CO)[C@H](O)[C@@H](O)[C@@H]1O (stereo partly drawn) [말토노나오스, maltononaose] | ~3 배 (fold) | – | –
2 | OC[C@H]1O[C@H](O[C@H]2[C@H](O)[C@@H](O)[C@@H](O[C@H]3[C@H](O)[C@@H](O)[C@@H](O[C@H]4[C@H](O)[C@@H](O)[C@@H](O[C@H]5[C@H](O)[C@@H](O)[C@@H](O[C@H]6[C@H](O)[C@@H](O)[C@@H](O[C@H]7[C@H](O)[C@@H](O)C(O)O[C@@H]7CO)O[C@@H]6CO)O[C@@H]5CO)O[C@@H]4CO)O[C@@H]3CO)O[C@@H]2CO)[C@H](O)[C@@H](O)[C@@H]1O (stereo partly drawn) [말토헵타오스, maltoheptaose] | – | 20 배 (fold) | 7 배 (fold)
